Measured values: patent US5508437A, “Analogs of tyrosine sulfate or tyrosine phosphate containing peptides” (Hoffmann-La Roche Inc., priority 1993, dated 1996)
Starred links: 1 amine or outer side, 2 acyl side, 3 side chain; linkers in the order of their positions; H or OH if unused. Positions of bridges follow the written chain, without caps; N, C: chain ends. Non-standard residues stand in square brackets, D forms with d. Residues, ends and D or L forms follow the SMILES beside them. ξ: configuration not given here. *: point of attachment. Propanoyl(3-(4-HOOCCH2-Ph)) = O=C(O)Cc1ccc(CCC(=O)*)cc1; X4 = O=C([C@@H](Cc1ccc(Cc2nn[nH]n2)cc1)N[*:1])[*:2]; X3 = CCOC(=O)Cc1ccc(C[C@@H](N[*:1])C(=O)[*:2])cc1; X9 = O=C(C(Cc1ccc(-c2nnn[nH]2)cc1)N[*:1])[*:2]; X1 = O=C(O)Cc1ccc(CC(N[*:1])C(=O)[*:2])cc1; X14 = O=C(O)c1cccc(CC(N[*:1])C(=O)[*:2])c1; ξPhe(4-COOH) = NC(Cc1ccc(C(=O)O)cc1)C(=O)O; X10 = O=C(CCc1ccc(-c2nn[nH]n2)cc1)*; NMeF = CN[C@@H](Cc1ccccc1)C(=O)O; Nle = CCCC[C@H](N)C(=O)O

Assays:
[1] = molecular target: T1, rat pancreas (3H-CCK-8-(SO3 H) receptor binding) (Rattus norvegicus, UniProt P30551); test: In vitro receptor binding assay, 3H-CCK-8-(SO3H), rat pancreas homogenate; conditions: 3H-CCK-8-(SO3H) 0.15 nM, 30 min at 25° C., rat pancreas homogenate; read-out: Rate Pancreas IC50 (concentration to inhibit 50% of specific 3H-CCK-8-(SO3H) binding)
T1 construct: pancreas approximately 0.100 mg protein in 1 mL final volume; from tissue; host or cells: rat pancreas membrane homogenate
T1 sequence (P30551 1-444): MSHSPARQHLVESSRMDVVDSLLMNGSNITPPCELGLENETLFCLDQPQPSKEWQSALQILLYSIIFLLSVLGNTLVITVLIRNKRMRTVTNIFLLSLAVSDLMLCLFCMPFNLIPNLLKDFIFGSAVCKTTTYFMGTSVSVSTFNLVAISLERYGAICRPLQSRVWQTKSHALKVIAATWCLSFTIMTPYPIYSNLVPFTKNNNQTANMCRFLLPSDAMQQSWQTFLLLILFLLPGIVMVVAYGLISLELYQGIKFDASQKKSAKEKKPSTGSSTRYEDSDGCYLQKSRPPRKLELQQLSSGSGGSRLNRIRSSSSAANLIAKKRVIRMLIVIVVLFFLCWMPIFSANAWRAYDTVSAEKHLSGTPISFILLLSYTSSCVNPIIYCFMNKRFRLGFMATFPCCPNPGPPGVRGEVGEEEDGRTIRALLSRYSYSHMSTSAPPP
Protocol: (§1) Frozen bovine striatum (approx. 5 g) or fresh rat pancreas (approx. 5 g) cleaned of fat and extraneous tissue were homogenized in HEPES buffer #1 (10 mM HEPES+130 mM NaCl+5 mM MgCl2, pH 7.4) using 35 parts buffer per 1 part tissue on a wet weight/volume basis (approx. 175 mL). The tissue was homogenized 2×for approx. 15 sec. at 0° C. using a Polytron homogenizer at a setting of 6. The tissue was isolated by centrifugation at 48,000× g for 10 min at 0° C. The resulting tissue pellet was resuspended in HEPES buffer #2 (10 mM HEPES+130 mM NaCl+5 mM MgCl2 +1 mg/L phenylmethanasulfonyl fluoride (PMSF)+200 mg/L Bacitracin): 1 part striatal tissue (original wet weight) per 80 parts buffer and 1 part pancreas tissue (original wet weight) per 500 to 1000 parts buffer.
(§2) Incubation was initiated by combining various concentrations of native CCK-8 or peptides of the invention with ^3 H-CCK-8-(SO3 H) (final conc.=0.15 nM) and tissue homogenate (striatum approximately 0.26 mg protein in 2 mL final volume; pancreas approximately 0.100 mg protein in 1 mL final volume). Samples were incubated for 30 min at 25° C. and the incubation terminated by pouring the mixture onto a pre-wetted Whatman GF/B filter on a Sandbeck Vacuum Filtration Manifold. The incubation tubes were washed with 2×3 mL of ice-cold HEPES Buffer #2 and the wash filtered through the GF/B filter. The filter was air dried for 10 min and then placed in a scintillation vial with 12 mL of DuPont/NEN Aquasol scintillation cocktail. The vials were shaken overnight and then counted using a liquid scintillation spectrometer. Non-specific binding was determined in the presence of 1 micromolar native CCK-8 and subtracted from all samples to determine specific binding. The concentration of peptide necessary to inhibit 50% of total specific H-CCK-8-(SO3 H) binding (IC50 value) was determined by log-probit analysis.

[2] = molecular target: T2, Bovine Striatum (3H-CCK-8-(SO3 H) receptor binding) (Bos taurus, UniProt P79266); test: In vitro receptor binding assay, 3H-CCK-8-(SO3H), bovine striatum homogenate; conditions: 3H-CCK-8-(SO3H) 0.15 nM, 30 min at 25° C., bovine striatum homogenate; read-out: Bovine Striatum IC50 (concentration to inhibit 50% of specific 3H-CCK-8-(SO3H) binding)
T2 construct: tissue homogenate (striatum approximately 0.26 mg protein in 2 mL final volume); from tissue; host or cells: bovine striatum membrane homogenate
T2 sequence (P79266 1-454): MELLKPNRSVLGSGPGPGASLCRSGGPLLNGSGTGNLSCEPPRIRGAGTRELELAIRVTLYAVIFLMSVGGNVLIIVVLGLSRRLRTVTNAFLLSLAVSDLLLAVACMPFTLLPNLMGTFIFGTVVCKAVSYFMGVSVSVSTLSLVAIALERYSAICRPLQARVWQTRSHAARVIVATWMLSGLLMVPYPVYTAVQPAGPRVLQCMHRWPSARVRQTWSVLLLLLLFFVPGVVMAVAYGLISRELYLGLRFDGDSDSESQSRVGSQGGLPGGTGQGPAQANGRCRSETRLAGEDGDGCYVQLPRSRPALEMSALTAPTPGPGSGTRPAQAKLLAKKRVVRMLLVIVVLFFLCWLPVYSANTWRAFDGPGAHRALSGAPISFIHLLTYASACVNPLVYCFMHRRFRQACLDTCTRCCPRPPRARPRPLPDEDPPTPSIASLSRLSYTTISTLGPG
Protocol: as §1, §2

[3] = system: Male Sprague-Dawley (CD) rats; test: Two-Meal Feeding Assay; format: in vivo; conditions: rat
Protocol: Male Sprague-Dawley (CD) rats weighing 180-200 grams (Charres River Breeding Laboratories) were acclimated to a 12 h light/dark cycle (6 a.m. to 6 p.m.) in a room kept at 22° C. They were subsequently fasted for two days, weighed, placed in individual cages, and a four-day period of meal training was begun. During this time the rats were given ground laboratory chow (Purina Lab Chow) in jars for one hour from 9:00 a.m. until 10:00 a.m., the jars were removed from 10:00 a.m. to 12:00 p.m., and placed back in the cages from 12:00 until 1:00 p.m. Under this `1-2-1` meal feeding regime, most rats learn to eat approximately as much per day during the two hours they have access to food as rats which have food ad libitum over the entire 24-hour day. On the fourth day, the rats were weighed again, and any which lost more than five grams body weight were excluded from the test. The animals were then distributed into experimental (n=5 to 6) and control groups (n=6-12), but not matched for body weight.
Peptides of the invention were suspended either in saline, if soluble, or in 0.5% DMSO/saline, if insoluble, at concentrations of 0 to 320 μg/mL/kg body weight and were administered intraperitoneally 15 min before the first meal on day 5 of meal feeding. The rats were then given their meals as they had been during the previous four days, and the food cups were weighed both before and after each meal to determine food consumption. Food intake was expressed as a mean and standard error of the mean in percent of control values for the various groups. The treated groups were compared to the control groups by t-test analysis.

[4] = dose 32 Microgram/kg intraperitoneally 15 min before first meal
[5] = dose 320 Microgram/kg intraperitoneally 15 min before first meal
[6] = dose 10 Microgram/kg intraperitoneally 15 min before first meal
[7] = dose 100 Microgram/kg intraperitoneally 15 min before first meal

| Structure (SMILES) | IC50 [1] | IC50 [2] | further results |
| --- | --- | --- | --- |
| CSCC[C@@H]1NC(=O)[C@H](Cc2c[nH]c3ccccc23)NC(=O)CNC(=O)[C@@H](NC(=O)C(Cc2ccc(-c3nnn[nH]3)cc2)NC(C)=O)CCCCNC(=O)C[C@@H](C(=O)N(C)[C@@H](Cc2ccccc2)C(N)=O)NC1=O (some centres unmarked) [Example 57] (Ac-[X9]KGWMD[NMeF]-NH2; lactam 2-6) | 1100 nM | 580 nM | Food Intake 1st Meal [3, 4]: 75 ± 6 % of Control; Food Intake 2nd Meal [3, 4]: 160 ± 14 % of Control; Food Intake 1st Meal [3, 5]: 36 ± 3 % of Control; Food Intake 2nd Meal [3, 5]: 148 ± 6 % of Control |
| CCOC(=O)Cc1ccc(C[C@@H](NC(C)=O)C(=O)N[C@@H](CCSC)C(=O)NCC(=O)N[C@@H](Cc2c[nH]c3ccccc23)C(=O)N[C@@H](CCSC)C(=O)N[C@@H](CC(=O)OCC)C(=O)N[C@@H](Cc2ccccc2)C(N)=O)cc1 [Example 49, Ac-(D)Phe(4-CH2 COOC2 H5)-Met-Gly-Trp-Met-Asp(COOC2H5)-Phe-NH2] (Ac-[X3]MGWMD(OEt)F-NH2) | 1000 nM | 10000 nM | – |
| CSCC[C@@H]1NC(=O)[C@H](Cc2c[nH]c3ccccc23)NC(=O)CNC(=O)[C@@H](NC(=O)CCc2ccc(-c3nn[nH]n3)cc2)CCCCNC(=O)C[C@@H](C(=O)N(C)[C@@H](Cc2ccccc2)C(N)=O)NC1=O [Example 68] (X10-KGWMD[NMeF]-NH2; lactam 1-5) | 2900 nM | 1400 nM | – |
| CSCC[C@H](NC(=O)C(Cc1cccc(C(=O)O)c1)NC(C)=O)C(=O)NCC(=O)N[C@@H](Cc1c[nH]c2ccccc12)C(=O)N[C@@H](CCSC)C(=O)N[C@@H](CC(=O)O)C(=O)N[C@@H](Cc1ccccc1)C(N)=O (stereo partly drawn) [Example 42, Ac-(D,L)Phe(3-COOH)-Met-Gly-Trp-Met-Asp-Phe-NH2] (Ac-[X14]MGWMDF-NH2) | 128 nM | 32 nM | – |
| CCCC[C@H](NC(=O)[C@H](Cc1c[nH]c2ccccc12)NC(=O)CNC(=O)[C@H](CCCC)NC(=O)[C@@H](Cc1ccc(Cc2nn[nH]n2)cc1)NC(C)=O)C(=O)N[C@@H](CC(=O)O)C(=O)N(C)[C@@H](Cc1ccccc1)C(N)=O [Example 64, Ac-(D)-Phe(4-CH2 -tetrazole)-Nle-Gly-Trp-Nle-Asp-N-methyl-Phe-NH2] (Ac-[X4][Nle]GW[Nle]D[NMeF]-NH2) | – | – | Food Intake 1st Meal [3, 6]: 112 ± 10 % of Control; Food Intake 2nd Meal [3, 6]: 102 ± 9 % of Control; Food Intake 1st Meal [3, 4]: 79 ± 5 % of Control; Food Intake 2nd Meal [3, 4]: 148 ± 12 % of Control; Food Intake 1st Meal [3, 7]: 56 % of Control; Food Intake 2nd Meal [3, 7]: 173 ± 5 % of Control; Food Intake 1st Meal [3, 5]: 21 ± 6 % of Control; Food Intake 2nd Meal [3, 5]: 207 % of Control |
| CSCC[C@@H]1NC(=O)[C@H](Cc2c[nH]c3ccccc23)NC(=O)CNC(=O)[C@@H](NC(=O)C(Cc2ccc(CC(=O)O)cc2)NC(C)=O)CCCCNC(=O)C[C@@H](C(=O)N(C)[C@@H](Cc2ccccc2)C(N)=O)NC1=O (stereo partly drawn) [Example 56, Ac-(D,L)Phe(4-CH2 COOH)-Lys-Gly-Trp-Met-Asp-N-methyl-Phe-NH2] (Ac-[X1]KGWMD[NMeF]-NH2; lactam 2-6) | 4650 nM | 10000 nM | – |
| CCCC[C@H](NC(=O)CCc1ccc(CC(=O)O)cc1)C(=O)N[C@H](C)C(=O)N[C@@H](Cc1c[nH]c2ccccc12)C(=O)N[C@@H](CCCC)C(=O)N[C@@H](CC(=O)O)C(=O)N(C)[C@@H](Cc1ccccc1)C(N)=O [Example 71, Desamino-Phe(4-CH2 COOH)-Nle-(D)Ala-Trp-Nle- Asp-N-methyl-Phe-NH2] ({Propanoyl(3-(4-HOOCCH2-Ph))}-[Nle][dA]W[Nle]D[NMeF]-NH2) | 1800 nM | 1400 nM | – |
| CSCC[C@H](NC(=O)C(Cc1ccc(C(=O)O)cc1)NC(C)=O)C(=O)NCC(=O)N[C@@H](Cc1c[nH]c2ccccc12)C(=O)N[C@@H](CCSC)C(=O)N[C@@H](CC(=O)O)C(=O)N[C@@H](Cc1ccccc1)C(N)=O (stereo partly drawn) [Example 43, AC-(D,L)Phe(4-COOH)-Met-Gly-Trp-Met-Asp-Phe-NH2] (Ac-[ξPhe(4-COOH)]MGWMDF-NH2) | 62 nM | 34 nM | – |
